Assay [1] has as its target T1, BA/F3-FLT3-ITD + D835Y cells (Homo sapiens, UniProt P36888, D835Y, cells depend on it, form not given).
T1 sequence (P36888 1-993 D835Y): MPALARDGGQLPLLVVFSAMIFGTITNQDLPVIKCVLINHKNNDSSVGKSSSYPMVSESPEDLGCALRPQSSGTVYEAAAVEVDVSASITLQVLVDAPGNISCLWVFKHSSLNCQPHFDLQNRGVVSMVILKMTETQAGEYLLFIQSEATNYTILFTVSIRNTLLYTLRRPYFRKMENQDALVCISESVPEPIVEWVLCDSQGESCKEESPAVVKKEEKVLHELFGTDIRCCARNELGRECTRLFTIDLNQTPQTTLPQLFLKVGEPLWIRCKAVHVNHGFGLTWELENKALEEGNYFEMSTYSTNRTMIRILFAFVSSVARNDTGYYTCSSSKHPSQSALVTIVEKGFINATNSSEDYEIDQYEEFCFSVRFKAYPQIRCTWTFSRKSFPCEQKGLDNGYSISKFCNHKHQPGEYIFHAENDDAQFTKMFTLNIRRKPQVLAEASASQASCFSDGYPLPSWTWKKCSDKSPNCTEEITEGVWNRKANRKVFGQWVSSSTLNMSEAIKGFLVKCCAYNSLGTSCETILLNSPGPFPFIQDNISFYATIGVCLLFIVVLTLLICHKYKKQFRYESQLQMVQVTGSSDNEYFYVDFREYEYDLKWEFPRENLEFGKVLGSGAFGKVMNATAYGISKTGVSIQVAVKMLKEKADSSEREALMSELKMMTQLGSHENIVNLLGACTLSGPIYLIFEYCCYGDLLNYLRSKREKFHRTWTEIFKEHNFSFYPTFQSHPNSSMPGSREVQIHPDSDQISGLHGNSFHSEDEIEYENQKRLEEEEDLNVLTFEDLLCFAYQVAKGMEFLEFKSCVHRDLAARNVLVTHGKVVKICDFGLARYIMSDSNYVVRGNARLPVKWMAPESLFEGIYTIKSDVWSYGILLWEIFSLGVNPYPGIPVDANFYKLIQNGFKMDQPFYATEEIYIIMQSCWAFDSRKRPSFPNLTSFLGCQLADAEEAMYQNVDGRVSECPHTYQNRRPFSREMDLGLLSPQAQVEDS
Nature of the assay: Cell proliferation assay (CellTiter-Glo), engineered BA/F3 cells. Type of assay: cell-based, murine. The conditions noted are these: BaF3 FLT3 ITD/D835Y cells, 3d-Growth; read-out: BaF3_FLT3 ITD/D835Y 3d-Growth: IC50. The text has this:
The FLT3 inhibitors may be assessed using the MOLM-14, Acute Myeloid Leukemia cell line that endogenously expresses FLT3 ITD or derivatives of the human FLT3 AML cell line which acquired the D835Y (activation loop) of F691L (gatekeeper) mutation after selection in escalating doses of the FLT3 Inhibitor AC220. FLT3 inhibitors may also be assessed using cells that are engineered to express mutant FLT3. For engineered cells, murine Ba/F3 cells were transfected with full-length FLT3 ITD/D835Y mutations. The parental BA/F3 cells are dependent upon Interleukin-3 (IL-3) for survival, and introduction of the FLT3 constructs rendered these cells dependent upon FLT3 kinase activity when cultured in the absences of IL-3. Engineered BA/F3 cell growth assays can be performed in either the […] of IL-3, to assess the compound inhibition of FLT3 or to detect the presence of off-target activity, respectively. Inhibitors of FLT3 kinase activity reduce or eliminate the FLT3 oncogenic signaling, resulting in reduced cell proliferation. This inhibition is measured as a function of compound concentration to asses IC50 values.
Cell lines used in proliferation assays are as follows in Table 3:
Cells were seeded at 1×10^4 cells per well of a 96 well cell culture plate in 50 μl of cell culture medium. Compounds were dissolved in DMSO, typically at a concentration of 0.5 mM and were serially diluted 1:3 for a total of eight points and added to the cells to final concentrations of […], 0.0041, 0.0014 and 0.00046 μM in 100 μl cell culture medium (final concentration 0.2% DMSO). […] The cells were incubated at 37° C., 5% CO2 for three days. CellTiter-Glo Buffer (Promega Cell Viability Assay catalog #G7573) and substrate were equilibrated to room temperature, and enzyme/substrate Recombinant Firefly Luciferase/Beetle Luciferin was reconstituted. The cell plates were equilibrated to room temperature for 30 minutes, then lysed by addition of an equivalent volume of the Celltiter-Glo Reagent. The plate was mixed for 10 minutes on a plate shaker to lyse the cells. The plates were read on a Tecan M1000 using Luminescence protocol modified to read 0.1 s per well. The luminescence reading assesses the ATP content, which correlates directly with cell number such that the reading as a function of compound concentration was used to determine the IC50 value.

Assay [2] addresses T2, c-KIT (Homo sapiens, UniProt P10721).
T2 construct: purchased Millipore 14-559K
Put plainly: AlphaScreen kinase assay with recombinant enzyme, c-KIT. Type of assay: biochemical. The following applies: 100ATP, 8pt, GMean. The procedure, abridged:
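Inhibition was measured as a drop in AlphaScreen signal arising from phosphotyrosine-bead capture of a biotinylated poly(Glu4-Tyr) peptide (30 nM) phosphorylated by recombinant kinase. For IC50 work the stated final concentration was 10 μM for the FLT3 mutants and 100 μM for c-KIT.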
(In general: Alpha assays give light when donor and acceptor beads are brought close together.)

10 compounds from patent US9938273B2 (Plexxikon Inc., priority 2015, dated 2018) can be followed below.

Molecules are shown by their SMILES.

T2 sequence (P10721 26-976): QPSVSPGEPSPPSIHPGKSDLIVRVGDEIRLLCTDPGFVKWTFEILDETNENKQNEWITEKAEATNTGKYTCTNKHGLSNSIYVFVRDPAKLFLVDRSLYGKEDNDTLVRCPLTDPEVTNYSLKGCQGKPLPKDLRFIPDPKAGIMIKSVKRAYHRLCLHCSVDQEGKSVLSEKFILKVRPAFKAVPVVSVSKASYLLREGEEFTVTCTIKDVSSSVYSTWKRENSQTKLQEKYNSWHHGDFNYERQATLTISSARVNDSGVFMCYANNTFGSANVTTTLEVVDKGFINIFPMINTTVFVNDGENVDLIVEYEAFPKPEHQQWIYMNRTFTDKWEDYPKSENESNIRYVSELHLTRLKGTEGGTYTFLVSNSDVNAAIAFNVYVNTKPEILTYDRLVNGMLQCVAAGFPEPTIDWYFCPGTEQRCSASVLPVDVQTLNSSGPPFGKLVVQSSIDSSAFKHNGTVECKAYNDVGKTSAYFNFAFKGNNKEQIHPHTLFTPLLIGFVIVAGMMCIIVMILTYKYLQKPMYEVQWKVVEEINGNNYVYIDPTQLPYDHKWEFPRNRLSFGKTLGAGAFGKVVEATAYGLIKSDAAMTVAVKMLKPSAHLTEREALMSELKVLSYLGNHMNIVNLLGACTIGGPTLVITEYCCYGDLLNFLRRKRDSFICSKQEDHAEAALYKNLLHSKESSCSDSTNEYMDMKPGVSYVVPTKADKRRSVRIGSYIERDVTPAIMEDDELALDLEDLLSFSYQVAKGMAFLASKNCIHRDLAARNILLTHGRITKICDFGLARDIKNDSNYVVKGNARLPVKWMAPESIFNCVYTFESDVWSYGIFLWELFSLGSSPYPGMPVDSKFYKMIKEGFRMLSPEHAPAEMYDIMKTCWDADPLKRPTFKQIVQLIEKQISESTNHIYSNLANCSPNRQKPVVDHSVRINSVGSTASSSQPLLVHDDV

As for `CC(C)(C#N)CNC(=O)c1cccc(-c2cnc3[nH]c(-c4cnn(CC(F)(F)F)c4)cc3c2)n1` [Compound P-0113, N-(2-cyano-2-methyl-propyl)-6-[2-[1-(2,2,2-trifluoroethyl)pyrazol-4-yl]-1H-pyrrolo[2,3-b]pyridin-5-yl]pyridine-2-carboxamide], the GI50 in assay [1] lay within 0.0001 to 10 µM. In assay [2], the IC50 was in the range of 0.0001 to 10 µM.
For `CS(=O)(=O)N1CCC(NS(=O)(=O)c2cccc(-c3cnc4[nH]c(-c5ccccc5)cc4c3)n2)C1` (centres unmarked) [Compound P-0107, N-(1-methylsulfonylpyrrolidin-3-yl)-6-(2-phenyl-1H-pyrrolo[2,3-b]pyridin-5-yl)pyridine-2-sulfonamide], the GI50 in assay [1] was 0.0001 to 10 µM. The IC50 in assay [2] lay in the range of 50 to 100 µM.
For `N#C[C@H]1CCN(C(=O)c2cccc(-c3cnc4[nH]c(-c5ccccc5)cc4c3)n2)C1` [Compound P-0117, (3S)-1-[6-(2-phenyl-1H-pyrrolo[2,3-b]pyridin-5-yl)pyridine-2-carbonyl]pyrrolidine-3-carbonitrile], in assay [1], the GI50 lay within 0.0001 to 10 µM. In addition, the half-maximal inhibitory concentration (IC50) in assay [2] is 0.0001 to 10 µM.
In the case of `COC1CCN(C(=O)c2cccc(-c3cnc4[nH]c(-c5ccccc5)cc4c3)n2)C1` (centres unmarked) [Compound P-0095, (3-methoxypyrrolidin-1-yl)-[6-(2-phenyl-1H-pyrrolo[2,3-b]pyridin-5-yl)-2-pyridyl]methanone], the GI50 in assay [1] was 0.0001 to 10 µM. The IC50 in assay [2] lay in the range of 10 to 50 µM.
For `N#CC1CCN(C(=O)c2cccc(-c3cnc4[nH]c(-c5ccccc5)cc4c3)n2)C1` (centres unmarked) [Compound P-0105, 1-[6-(2-phenyl-1H-pyrrolo[2,3-b]pyridin-5-yl)pyridine-2-carbonyl]pyrrolidine-3-carbonitrile], the GI50 in assay [1] fell in the range of 0.0001 to 10 µM. Besides, the IC50 in assay [2] lay in the range of 10 to 50 µM.
As for `N#CC1(NC(=O)c2cccc(-c3cnc4[nH]c(-c5ccccc5)cc4c3)n2)CCC1` [Compound P-0114, N-(1-cyanocyclobutyl)-6-(2-phenyl-1H-pyrrolo[2,3-b]pyridin-5-yl)pyridine-2-carboxamide], the GI50 in assay [1] is 0.0001 to 10 µM. Further, the IC50 in assay [2] lay in the range of 50 to 100 µM.
Taken in the same sequence, the figures for `CN(CCC#N)C(=O)c1cccc(-c2cnc3[nH]c(-c4ccccc4)cc3c2)n1` [Compound P-0119, N-(2-cyanoethyl)-N-methyl-6-(2-phenyl-1H-pyrrolo[2,3-b]pyridin-5-yl)pyridine-2-carboxamide] were 0.0001 to 10 µM and 50 to 100 µM.
As for `O=C(c1cccc(-c2cnc3[nH]c(-c4ccccc4)cc3c2)n1)N1CCC(n2ccnc2)C1` (centres unmarked) [Compound P-0097, (3-imidazol-1-ylpyrrolidin-1-yl)-[6-(2-phenyl-1H-pyrrolo[2,3-b]pyridin-5-yl)-2-pyridyl]methanone], the GI50 in assay [1] was 0.0001 to 10 µM. Further, the 50% inhibitory concentration (IC50) in assay [2] lay in the range of 0.0001 to 10 µM.
With `CC(C)(C#N)CNC(=O)c1cccc(-c2cnc3[nH]c(C4=CCCCC4)cc3c2)n1` [Compound P-0123, N-(2-cyano-2-methyl-propyl)-6-[2-(cyclohexen-1-yl)-1H-pyrrolo[2,3-b]pyridin-5-yl]pyridine-2-carboxamide], the GI50 in assay [1] is 0.0001 to 10 µM. In addition, the concentration for half-maximal inhibition (IC50) in assay [2] lay in the range of 0.0001 to 10 µM.
For `CN[C@@H]1CCN(C(=O)c2ccc(-c3cnc4[nH]c(-c5ccccc5)cc4c3)s2)C1` [Compound P-0106, [(3R)-3-(methylamino)pyrrolidin-1-yl]-[5-(2-phenyl-1H-pyrrolo[2,3-b]pyridin-5-yl)-2-thienyl]methanone], the GI50 in assay [1] lay in the range of 0.0001 to 10 µM. Further, the IC50 in assay [2] is 0.0001 to 10 µM.

Broadly, the IC50 is the midpoint of a concentration-inhibition curve.
